Reference: ChEMBL document CHEMBL3785016, “Design, synthesis, and anti-breast cancer evaluation of new triarylethylene analogs bearing short alkyl- and polar amino-/amido-ethyl chains” (Bioorg Med Chem Lett, 2016)
Activity calls are given as the source filed them. The calls are words filed in the database; no cut-off is given here.

How the values were obtained:
[1] = tested on: MCF7; experiment: Cytotoxicity against human ER-positive MCF7 cells assessed as cell viability after 72 hrs by MTT assay; format: functional, cell-based
[2] = tested on: MDA-MB-231; experiment: Cytotoxicity against human ER-negative MDA-MB-231 cells assessed as cell viability after 72 hrs by MTT assay; format: functional, cell-based; conditions: for IC50: MDA-MB-231, 72 h
[3] = tested on: MDA-MB-231; experiment: Antimigratory activity in human ER-negative MDA-MB-231 cells assessed as cell migration level at 0.5 uM after 24 hrs by scratch assay; format: functional
[4] = tested on: MDA-MB-231; experiment: Antimigratory activity in human ER-negative MDA-MB-231 cells assessed as cell migration level at 1 uM after 24 hrs by scratch assay; format: functional
[5] = tested on: MDA-MB-231; experiment: Inhibition of MMP9 expression in human ER-negative MDA-MB-231 cells after 24 hrs by western blotting; format: functional, cell-based
[6] = tested on: MDA-MB-231; experiment: Inhibition of c-Myc expression in human ER-negative MDA-MB-231 cells after 24 hrs by western blotting; format: functional, cell-based
[7] = tested on: MDA-MB-231; experiment: Inhibition of caveolin-1 expression in human ER-negative MDA-MB-231 cells after 24 hrs by western blotting; format: functional, cell-based
[8] = tested on: MCF7; experiment: Inhibition of MMP9 expression in human ER-positive MCF7 cells after 24 hrs by western blotting; format: functional, cell-based
[9] = tested on: MCF7; experiment: Inhibition of c-Myc expression in human ER-positive MCF7 cells after 24 hrs by western blotting; format: functional, cell-based
[10] = tested on: MCF7; experiment: Inhibition of caveolin-1 expression in human ER-positive MCF7 cells after 24 hrs by western blotting; format: functional, cell-based
[11] = tested on: MDA-MB-231; experiment: Inhibition of cell invasion in human ER-negative MDA-MB-231 cells after 24 hrs by Boyden chamber transwell invasion assay; format: functional, cell-based
[12] = tested on: MDA-MB-231; experiment: Inhibition of c-Myc expression in human ER-negative MDA-MB-231 cells at 10 and 25 uM after 24 hrs by western blotting; format: functional, cell-based
[13] = tested on: MCF7; experiment: Inhibition of caveolin-1 expression in human ER-positive MCF7 cells at 10 and 25 uM after 24 hrs by western blotting; format: functional, cell-based
[14] = tested on: MCF7; experiment: Inhibition of c-Myc expression in human ER-positive MCF7 cells at 10 and 25 uM after 24 hrs by western blotting; format: functional, cell-based
[15] = tested on: MCF7; experiment: Inhibition of MMP9 expression in human ER-positive MCF7 cells at 10 and 25 uM after 24 hrs by western blotting; format: functional, cell-based
[16] = tested on: MDA-MB-231; experiment: Inhibition of caveolin-1 expression in human ER-negative MDA-MB-231 cells at 10 and 25 uM after 24 hrs by western blotting; format: functional, cell-based
[17] = tested on: MDA-MB-231; experiment: Inhibition of MMP9 expression in human ER-negative MDA-MB-231 cells at 10 and 25 uM after 24 hrs by western blotting; format: functional, cell-based
[18] = Homo sapiens, MCF7, 72 h, read-out: IC50

Row | SMILES | IC50 [1, 18] [µM] | IC50 [2] [µM] | further results
1 | COc1ccc(/C(=C(/CCNC(=O)NCc2ccccc2)c2ccccc2)c2ccccc2)cc1 | > 50 | > 50 | –
2 | CCN(CC)C(=O)NCC/C(=C(\c1ccccc1)c1ccc(OC)cc1)c1ccccc1 | > 50 | 40.7 | –
3 | COc1ccc(/C(=C(/CCNC(=O)C(=O)N2CCOCC2)c2ccccc2)c2ccccc2)cc1 | 43.4 | 20 | –
4 | COc1ccc(/C(=C(/CCNC(=O)C(=O)N2CCCCC2)c2ccccc2)c2ccccc2)cc1 | > 50 | > 50 | –
5 | COc1ccc(/C(=C(/CCN)c2ccccc2)c2ccccc2)cc1 | – | – | Activity [3]: 60%; Activity [4]: 25%; inhibition [5]: Dose-dependent effect; inhibition [6]: Dose-dependent effect; inhibition [7]: Dose-dependent effect; inhibition [8]: Dose-dependent effect; inhibition [9]: Dose-dependent effect; inhibition [10]: Dose-dependent effect; inhibition [11]: Dose-dependent effect
6 | COc1ccc(/C(=C(/CCNC(=O)C(=O)NCc2ccccc2)c2ccccc2)c2ccccc2)cc1 | > 50 | 11.5 | Activity [4]: inactive; inhibition [12]: Active; inhibition [13]: inactive; inhibition [14]: Active; inhibition [15]: Active; inhibition [16]: inactive; inhibition [17]: Active
7 | CCOC(=O)C(=O)NCC/C(=C(\c1ccccc1)c1ccc(OC)cc1)c1ccccc1 | > 50 | > 50 | –
8 | COc1ccc(/C(=C(/CCNC(=O)C(=O)N2CCCC2)c2ccccc2)c2ccccc2)cc1 | > 50 | 48.6 | –
9 | OCCOc1ccc(/C(=C(/CCCl)c2ccccc2)c2ccccc2)cc1 [OSPEMIFENE] | > 50 | > 50 | Activity [4]: inactive
10 | COc1ccc(/C(=C(/CCN=[N+]=[N-])c2ccccc2)c2ccccc2)cc1 | – | – | IC50 ([1]; mcf7): Not Active; Activity [2]: inactive
11 | COc1ccc(/C(=C(/CCCl)c2ccccc2)c2ccccc2)cc1 | > 50 | > 50 | –
12 | COc1ccc(/C(=C(/CCNC(=O)C(=O)NC2CCCCC2)c2ccccc2)c2ccccc2)cc1 | 12.1 | 12.2 | Activity [4]: inactive; inhibition [12]: Active; inhibition [13]: inactive; inhibition [14]: Active; inhibition [15]: Active; inhibition [16]: inactive; inhibition [17]: Active
13 | COc1ccc(/C(=C(/CCNC(=O)N2CCOCC2)c2ccccc2)c2ccccc2)cc1 | > 50 | 42.8 | –
14 | COc1ccc(/C(=C(/CCNC(=O)N2CCCCC2)c2ccccc2)c2ccccc2)cc1 | > 50 | > 50 | –
15 | COc1ccc(/C(=C(/CCNC(=O)N2CCCC2)c2ccccc2)c2ccccc2)cc1 | > 50 | > 50 | –
16 | COc1ccc(/C(=C(/CCNC(=O)Oc2ccccc2)c2ccccc2)c2ccccc2)cc1 | – | – | IC50 ([1]; mcf7): Not Active; Activity [2]: inactive
17 | COc1ccc(/C(=C(/CCNC(=O)NC2CCCCC2)c2ccccc2)c2ccccc2)cc1 | 37.2 | > 50 | –
